Source: the NIST ThermoML archive (doi:10.1016/j.jct.2016.06.012)

Experiment: xn = mol fraction of the nth substance listed
Conditions: 100 kPa, Liquid; for viscosity: Capillary tube (Ostwald / Ubbelohde) method; for mass density: Vibrating tube method

CCn1cc[n+](C)c1C.O=S(=O)([N-]S(=O)(=O)C(F)(F)F)C(F)(F)F + O=C1CCCO1
Conditions | mass density [kg/m3] | viscosity [mPa·s]
293.15 K, x1 = 0.0493 | 1186.33 | 2.39
293.15 K, x1 = 0.1001 | 1232.87 | 3.16
293.15 K, x1 = 0.1526 | 1271.98 | 4.27
293.15 K, x1 = 0.2001 | 1301.42 | 5.28
293.15 K, x1 = 0.3001 | 1350.26 | 8.11
293.15 K, x1 = 0.4013 | 1387.19 | 12.59
293.15 K, x1 = 0.5004 | 1415.28 | 19.41
293.15 K, x1 = 0.5995 | 1437.76 | 29.23
293.15 K, x1 = 0.6929 | 1455.24 | 40.61
293.15 K, x1 = 0.814 | 1473.91 | 57.8
293.15 K, x1 = 0.9001 | 1485.09 | 71.36
293.15 K, x1 = 1 | 1496.32 | 89.27
298.15 K, x1 = 0.0493 | 1181.34 | 2.2
298.15 K, x1 = 0.1001 | 1227.92 | 2.88
298.15 K, x1 = 0.1526 | 1267.02 | 3.89
298.15 K, x1 = 0.2001 | 1296.47 | 4.75
298.15 K, x1 = 0.3001 | 1345.33 | 7.21
298.15 K, x1 = 0.4013 | 1382.26 | 10.79
298.15 K, x1 = 0.5004 | 1410.36 | 16.23
298.15 K, x1 = 0.5995 | 1432.85 | 23.73
298.15 K, x1 = 0.6929 | 1450.35 | 32.36
298.15 K, x1 = 0.814 | 1469.03 | 45.73
298.15 K, x1 = 0.9001 | 1480.21 | 56.03
298.15 K, x1 = 1 | 1491.47 | 70.77
303.15 K, x1 = 0.0493 | 1176.42 | 2.02
303.15 K, x1 = 0.1001 | 1222.97 | 2.64
303.15 K, x1 = 0.1526 | 1262.07 | 3.55
303.15 K, x1 = 0.2001 | 1291.53 | 4.31
303.15 K, x1 = 0.3001 | 1340.4 | 6.49
303.15 K, x1 = 0.4013 | 1377.35 | 9.66
303.15 K, x1 = 0.5004 | 1405.48 | 13.87
303.15 K, x1 = 0.5995 | 1427.99 | 19.69
303.15 K, x1 = 0.6929 | 1445.51 | 26.32
303.15 K, x1 = 0.814 | 1464.21 | 36.61
303.15 K, x1 = 0.9001 | 1475.4 | 45.12
303.15 K, x1 = 1 | 1486.67 | 57.02
308.15 K, x1 = 0.0493 | 1171.5 | 1.87
308.15 K, x1 = 0.1001 | 1218.03 | 2.42
308.15 K, x1 = 0.1526 | 1257.12 | 3.23
308.15 K, x1 = 0.2001 | 1286.58 | 3.92
308.15 K, x1 = 0.3001 | 1335.47 | 5.84
308.15 K, x1 = 0.4013 | 1372.45 | 8.44
308.15 K, x1 = 0.5004 | 1400.6 | 11.97
308.15 K, x1 = 0.5995 | 1423.13 | 16.7
308.15 K, x1 = 0.6929 | 1440.66 | 21.94
308.15 K, x1 = 0.814 | 1459.39 | 30.04
308.15 K, x1 = 0.9001 | 1470.6 | 36.72
308.15 K, x1 = 1 | 1481.87 | 46.6
313.15 K, x1 = 0.0493 | 1166.58 | 1.74
313.15 K, x1 = 0.1001 | 1213.09 | 2.24
313.15 K, x1 = 0.1526 | 1252.18 | 2.97
313.15 K, x1 = 0.2001 | 1281.64 | 3.59
313.15 K, x1 = 0.3001 | 1330.56 | 5.24
313.15 K, x1 = 0.4013 | 1367.56 | 7.44
313.15 K, x1 = 0.5004 | 1395.73 | 10.46
313.15 K, x1 = 0.5995 | 1418.28 | 14.19
313.15 K, x1 = 0.6929 | 1435.84 | 18.31
313.15 K, x1 = 0.814 | 1454.58 | 24.98
313.15 K, x1 = 0.9001 | 1465.81 | 30.3
313.15 K, x1 = 1 | 1477.09 | 38.62
318.15 K, x1 = 0.0493 | 1161.65 | 1.62
318.15 K, x1 = 0.1001 | 1208.15 | 2.07
318.15 K, x1 = 0.1526 | 1247.24 | 2.72
318.15 K, x1 = 0.2001 | 1276.71 | 3.27
318.15 K, x1 = 0.3001 | 1325.64 | 4.7
318.15 K, x1 = 0.4013 | 1362.67 | 6.63
318.15 K, x1 = 0.5004 | 1390.87 | 9.21
318.15 K, x1 = 0.5995 | 1413.44 | 12.26
318.15 K, x1 = 0.6929 | 1431.02 | 15.7
318.15 K, x1 = 0.814 | 1449.79 | 21.08
318.15 K, x1 = 0.9001 | 1461.03 | 25.54
318.15 K, x1 = 1 | 1472.32 | 32.33
323.15 K, x1 = 0.0493 | 1156.72 | 1.52
323.15 K, x1 = 0.1001 | 1203.21 | 1.9
323.15 K, x1 = 0.1526 | 1242.31 | 2.5
323.15 K, x1 = 0.2001 | 1271.78 | 3.02
323.15 K, x1 = 0.3001 | 1320.73 | 4.29
323.15 K, x1 = 0.4013 | 1357.79 | 6.05
323.15 K, x1 = 0.5004 | 1386.01 | 8.19
323.15 K, x1 = 0.5995 | 1408.61 | 10.68
323.15 K, x1 = 0.6929 | 1426.21 | 13.74
323.15 K, x1 = 0.814 | 1445.01 | 18.23
323.15 K, x1 = 0.9001 | 1456.26 | 21.94
323.15 K, x1 = 1 | 1467.56 | 27.06
